Results as given in patent US8367602B2, “Consensus peptides and a method for inducing biomineralization” (Corticalis AS, priority 2006, dated 2013).
“And” between values parts separate entries of the source, which are not always exact repeats. Identical values can stand only once. Ends that are not written are not given here.

Key:
LDH activity [1] = test: Wound fluid LDH activity at implant site, physically adsorbed peptide, Example 6; type: in vivo, rabbits (New Zealand White); conditions: 4 weeks healing, vs control implants; physical adsorption
Description: Peptides can be physically adsorbed onto a titanium surface, as an alternative method for covalent binding. Negatively charged carboxylic groups show a strong affinity for metal oxide surfaces and can therefore directly interact with the titanium surface (Imamura et al, 2007). Peptide solution (10 μl, 0.1 mg/ml) was applied to the surface of the titanium implant and incubated for 24 h at 37° C. After 24 h, titanium implants were rinsed and packed with the same method as described above. Control implants were treated with 10 μl of PBS without adding peptide.
(§1) The implants with consensus peptide coated surfaces (n=12) and controls (n=12) were placed in calibrated cortical bone defects in the tibia of rabbits (New Zealand White). A small central fenestration into the bone marrow beneath each implant was made to allow for migration of osteogenic cells to the implant surfaces. The methods used were all according to a standardized and validated model established for the study of bone attachment to titanium implant surfaces (Rønold and Ellingsen, 2002). Each rabbit received four implants, two in each tibia bone. Location of test and control implants was randomized and the operator was blinded. […]
(§2) LDH activity and total protein was analysed in the wound fluid collected from the implant site following a 4 week healing period. […]

LDH activity [2] = test: Wound fluid LDH activity at implant site, tresyl chloride coupled peptide, Example 5; type: in vivo, rabbits (New Zealand White); conditions: 4 weeks healing, vs control implants; tresyl chloride coupling
Description: The surface of the machined titanium implant was first covered with 10 μl of tresyl chloride (2,2,2-trifluoroethanesulfonyl chloride) and incubated at 37° C. for 2 days. Then, the tresylated titanium implant was washed with water, water-acetone (50:50), acetone, and dried in a desiccator.
Peptide solution (10 μl, 0.1 mg/ml) was applied to the surface of the titanium implant and incubated for 24 h at 37° C., then rinsed with water. Finally, implants were dried in a desiccator, packed and stored at 4° C.
as §1, with “blinded. At four weeks after implantation the rabbits were sacrificed and the tibia bones with the implants attached were excised.” for “blinded.”
as §2

[3] = Isoelectric point (pI) of the peptide; type: physicochemical
[4] = Mineral precipitation (mfu by SEM) on peptide-coated coin shaped titanium specimens, Example 1
Description: Eight coin shaped implants with a diameter of 6.25 mm, was attached to an titanium electrode and submerged in an sterile electrolyte containing 0.5 M NaCl, adjusted to pH 8.0 by the use of 1.0 M NaOH, and a synthetic poly-proline peptide designed to stimulate nucleation of calcium phosphate crystals. The peptide, having a pI of 5.82, had the following sequence: PLV PSY PLV PSY PLV PSY PYP PLPP (SEQ ID NO:3), and was applied at a final concentration of 0.01 mg/ml in the electrolyte. The electrode was attached to the positive outlet of a power supply, and an electrical current of 10 Volts at 100 mA at a cell temperature of 40 degrees Celsius, was applied for eight hours. The electrolytic process produced a thin peptide coating onto the oxidized titanium surface visible as a greyish precipitation. After coating the titanium specimens were rinsed in sterile water and subsequently put into sterile glass containers where they were allowed to air-dry. Eight identical titanium specimens, treated identically as the test specimens with the exception that no peptides were added to the electrolyte, was produced as controls. After drying, the titanium specimens (peptide coated and controls) were submerged in 50 ml of a saturated solution of calcium phosphate at 50 degrees Celsius. The solution was then allowed to cool to room temperature and incubated at 25 degrees Celsius for 48 hours. The titanium specimens were then removed from the solution, rinsed briefly in sterile water and air-dried in a desiccator. When dry, the implants were directly analyzed by scanning electron microscopy (SEM) for quantitative and qualitative assessment of the number and nature of mineral precipitation foci present on their surfaces. The number of mineral forming units (mfu) on the surface directly corresponds to the number of mineral nucleation sites present on the surface during the experiments.
This is a strong indication that the synthetic peptide used here positively influence the formation of bone mineral deposition onto titanium surfaces.

| LDH activity in the periimplant tissue (wound fluid) (LDH activity [1]) | LDH activity in the periimplant tissue (wound fluid) (LDH activity [2]) | Substance | pI [3] | Number of mineral forming units (mfu) per square mm titanium surface assessed by SEM ([4]; individual peptide coated specimens, saturated calcium phosphate solution, 48 hours at 25 degrees Celsius) | Number of mineral forming units (mfu) per square mm titanium surface assessed by SEM, mean values ([4]; mean of peptide coated specimens (n = 8)) [mfu mfu per square mm] | number of mineral deposition foci versus controls ([4]; peptide coated titanium specimens vs controls without peptide) |
| --- | --- | --- | --- | --- | --- | --- |
| decrease | decrease | PLVPSQPLVPSQPLVPSQPQPPLPP [SEQ ID NO 4, PLV PSQ PLV PSQ PLV PSQ PQP PLPP] |  |  |  |  |
|  |  | PLV PSY PLV PSY PLV PSY PYP PLPP (PLVPSYPLVPSYPLVPSYPYPPLPP; Mineralization/biomineralization inducing peptide) [SEQ ID NO 3] | 5.82 | 5625 mfu mfu per square mm and Confluent (Values above 10.000 are recorded as “Confluent”) (4×) and 7744 mfu mfu per square mm and 9025 mfu mfu per square mm and 8100 mfu mfu per square mm | >8812 | significantly (p<0.01) increased |
